Measurements as given in the kinase profiling compilation of Christmann-Franck et al. (2016).

What was measured:
FLT4 (human) = FLT4 (human) (UniProt P35916); experiment: KINOMEscan competition binding; conditions: compound 10.0 µM
[1] = test system: ABL1 (human), P00519 [F317L]; experiment: KINOMEscan competition binding; conditions: compound 10.0 µM
CHEK1 (human) = CHEK1 (human) (UniProt O14757); experiment: KINOMEscan competition binding; conditions: compound 10.0 µM
PDGFRB (human) = PDGFRB (human) (UniProt P09619); experiment: KINOMEscan competition binding; conditions: compound 10.0 µM
MYLK4 (human) = MYLK4 (human) (UniProt Q86YV6); experiment: KINOMEscan competition binding; conditions: compound 10.0 µM
FRK (human) = FRK (human) (UniProt P42685); experiment: KINOMEscan competition binding; conditions: compound 10.0 µM
BLK (human) = BLK (human) (UniProt P51451); experiment: KINOMEscan competition binding; conditions: compound 10.0 µM
SLK (human) = SLK (human) (UniProt Q9H2G2); experiment: KINOMEscan competition binding; conditions: compound 10.0 µM
[2] = test system: KIT (human), P10721 [V559D/T670I]; experiment: KINOMEscan competition binding; conditions: compound 10.0 µM
SIK2 (human) = SIK2 (human) (UniProt Q9H0K1); experiment: KINOMEscan competition binding; conditions: compound 10.0 µM
KIT (human) = KIT (human) (UniProt P10721); experiment: KINOMEscan competition binding; conditions: compound 10.0 µM
FGFR4 (human) = FGFR4 (human) (UniProt P22455); experiment: KINOMEscan competition binding; conditions: compound 10.0 µM
STK33 (human) = STK33 (human) (UniProt Q9BYT3); experiment: KINOMEscan competition binding; conditions: compound 10.0 µM
[3] = test system: KIT (human), P10721 [V559D/V654A]; experiment: KINOMEscan competition binding; conditions: compound 10.0 µM
BMP2K (human) = BMP2K (human) (UniProt Q9NSY1); experiment: KINOMEscan competition binding; conditions: compound 10.0 µM
PLK3 (human) = PLK3 (human) (UniProt Q9H4B4); experiment: KINOMEscan competition binding; conditions: compound 10.0 µM
RPS6KA6 KD2 (human) = RPS6KA6 KD2 (human) (UniProt Q9UK32); experiment: KINOMEscan competition binding; conditions: compound 10.0 µM
PIP5K1A (human) = PIP5K1A (human) (UniProt Q99755); experiment: KINOMEscan competition binding; conditions: compound 10.0 µM
PRKD1 (human) = PRKD1 (human) (UniProt Q15139); experiment: KINOMEscan competition binding; conditions: compound 10.0 µM
NEK2 (human) = NEK2 (human) (UniProt P51955); experiment: KINOMEscan competition binding; conditions: compound 10.0 µM
[4] = target: TYK2 JH2 pseudokinase (human) (UniProt P29597); experiment: KINOMEscan competition binding; conditions: compound 10.0 µM
GAK (human) = GAK (human) (UniProt O14976); experiment: KINOMEscan competition binding; conditions: compound 10.0 µM
[5] = test system: KIT (human), P10721 [V559D]; experiment: KINOMEscan competition binding; conditions: compound 10.0 µM
TNK2 (human) = TNK2 (human) (UniProt Q07912); experiment: KINOMEscan competition binding; conditions: compound 10.0 µM
[6] = test system: ABL1 (human), P00519 [F317I]; experiment: KINOMEscan competition binding; conditions: compound 10.0 µM
[7] = test system: KIT (human), P10721 [D816V]; experiment: KINOMEscan competition binding; conditions: compound 10.0 µM
PDGFRA (human) = PDGFRA (human) (UniProt P16234); experiment: KINOMEscan competition binding; conditions: compound 10.0 µM
RIOK1 (human) = RIOK1 (human) (UniProt Q9BRS2); experiment: KINOMEscan competition binding; conditions: compound 10.0 µM
RPS6KA1 KD2 (human) = RPS6KA1 KD2 (human) (UniProt Q15418); experiment: KINOMEscan competition binding; conditions: compound 10.0 µM
[8] = test system: FLT3 (human), P36888 [D835H]; experiment: KINOMEscan competition binding; conditions: compound 10.0 µM
PRKD3 (human) = PRKD3 (human) (UniProt O94806); experiment: KINOMEscan competition binding; conditions: compound 10.0 µM
RIOK3 (human) = RIOK3 (human) (UniProt O14730); experiment: KINOMEscan competition binding; conditions: compound 10.0 µM
[9] = test system: EIF2AK4 KD2 (human), Q9P2K8 [S808G]; experiment: KINOMEscan competition binding; conditions: compound 10.0 µM
CSF1R (human) = CSF1R (human) (UniProt P07333); experiment: KINOMEscan competition binding; conditions: compound 10.0 µM
FLT3 (human) = FLT3 (human) (UniProt P36888); experiment: KINOMEscan competition binding; conditions: compound 10.0 µM
TNK1 (human) = TNK1 (human) (UniProt Q13470); experiment: KINOMEscan competition binding; conditions: compound 10.0 µM
[10] = test system: FLT3 (human), P36888 [K663Q]; experiment: KINOMEscan competition binding; conditions: compound 10.0 µM
PIM1 (human) [11] = target: PIM1 (human) (UniProt P11309); experiment: SelectScreen, TR FRET
PIM2 (human) [12] = target: PIM2 (human) (UniProt Q9P1W9); experiment: SelectScreen, TR FRET
AXL (human) = AXL (human) (UniProt P30530); experiment: KINOMEscan competition binding; conditions: compound 10.0 µM
MAPK10 (human) = MAPK10 (human) (UniProt P53779); experiment: KINOMEscan competition binding; conditions: compound 10.0 µM
PIM3 (human) = PIM3 (human) (UniProt Q86V86); experiment: KINOMEscan competition binding; conditions: compound 10.0 µM
MAPK9 (human) = MAPK9 (human) (UniProt P45984); experiment: KINOMEscan competition binding; conditions: compound 10.0 µM
PLK4 (human) = PLK4 (human) (UniProt O00444); experiment: KINOMEscan competition binding; conditions: compound 10.0 µM
STK3 (human) = STK3 (human) (UniProt Q13188); experiment: KINOMEscan competition binding; conditions: compound 10.0 µM
STK17B (human) = STK17B (human) (UniProt O94768); experiment: KINOMEscan competition binding; conditions: compound 10.0 µM
SRPK3 (human) = SRPK3 (human) (UniProt Q9UPE1); experiment: KINOMEscan competition binding; conditions: compound 10.0 µM
PIM1 (human) [13] = target: PIM1 (human) (UniProt P11309); experiment: KINOMEscan competition binding; conditions: compound 10.0 µM
ALK (human) = ALK (human) (UniProt Q9UM73); experiment: KINOMEscan competition binding; conditions: compound 10.0 µM
AURKC (human) = AURKC (human) (UniProt Q9UQB9); experiment: KINOMEscan competition binding; conditions: compound 10.0 µM
TGFBR2 (human) = TGFBR2 (human) (UniProt P37173); experiment: KINOMEscan competition binding; conditions: compound 10.0 µM
SRPK1 (human) = SRPK1 (human) (UniProt Q96SB4); experiment: KINOMEscan competition binding; conditions: compound 10.0 µM
STK17A (human) = STK17A (human) (UniProt Q9UEE5); experiment: KINOMEscan competition binding; conditions: compound 10.0 µM
DAPK3 (human) = DAPK3 (human) (UniProt O43293); experiment: KINOMEscan competition binding; conditions: compound 10.0 µM
NEK6 (human) = NEK6 (human) (UniProt Q9HC98); experiment: KINOMEscan competition binding; conditions: compound 10.0 µM
CSNK2A1 (human) = CSNK2A1 (human) (UniProt P68400); experiment: KINOMEscan competition binding; conditions: compound 10.0 µM
MAPK14 (human) = MAPK14 (human) (UniProt Q16539); experiment: KINOMEscan competition binding; conditions: compound 10.0 µM
MERTK (human) = MERTK (human) (UniProt Q12866); experiment: KINOMEscan competition binding; conditions: compound 10.0 µM
PIM2 (human) [14] = target: PIM2 (human) (UniProt Q9P1W9); experiment: KINOMEscan competition binding; conditions: compound 10.0 µM
DAPK2 (human) = DAPK2 (human) (UniProt Q9UIK4); experiment: KINOMEscan competition binding; conditions: compound 10.0 µM
CDK16 (human) = CDK16 (human) (UniProt Q00536); experiment: KINOMEscan competition binding; conditions: compound 10.0 µM
CSNK2A2 (human) = CSNK2A2 (human) (UniProt P19784); experiment: KINOMEscan competition binding; conditions: compound 10.0 µM
HIPK1 (human) = HIPK1 (human) (UniProt Q86Z02); experiment: KINOMEscan competition binding; conditions: compound 10.0 µM
NEK7 (human) = NEK7 (human) (UniProt Q8TDX7); experiment: KINOMEscan competition binding; conditions: compound 10.0 µM
MAPK8 (human) = MAPK8 (human) (UniProt P45983); experiment: KINOMEscan competition binding; conditions: compound 10.0 µM

Sequence of FLT4 (human) (P35916 whole entry, looked up): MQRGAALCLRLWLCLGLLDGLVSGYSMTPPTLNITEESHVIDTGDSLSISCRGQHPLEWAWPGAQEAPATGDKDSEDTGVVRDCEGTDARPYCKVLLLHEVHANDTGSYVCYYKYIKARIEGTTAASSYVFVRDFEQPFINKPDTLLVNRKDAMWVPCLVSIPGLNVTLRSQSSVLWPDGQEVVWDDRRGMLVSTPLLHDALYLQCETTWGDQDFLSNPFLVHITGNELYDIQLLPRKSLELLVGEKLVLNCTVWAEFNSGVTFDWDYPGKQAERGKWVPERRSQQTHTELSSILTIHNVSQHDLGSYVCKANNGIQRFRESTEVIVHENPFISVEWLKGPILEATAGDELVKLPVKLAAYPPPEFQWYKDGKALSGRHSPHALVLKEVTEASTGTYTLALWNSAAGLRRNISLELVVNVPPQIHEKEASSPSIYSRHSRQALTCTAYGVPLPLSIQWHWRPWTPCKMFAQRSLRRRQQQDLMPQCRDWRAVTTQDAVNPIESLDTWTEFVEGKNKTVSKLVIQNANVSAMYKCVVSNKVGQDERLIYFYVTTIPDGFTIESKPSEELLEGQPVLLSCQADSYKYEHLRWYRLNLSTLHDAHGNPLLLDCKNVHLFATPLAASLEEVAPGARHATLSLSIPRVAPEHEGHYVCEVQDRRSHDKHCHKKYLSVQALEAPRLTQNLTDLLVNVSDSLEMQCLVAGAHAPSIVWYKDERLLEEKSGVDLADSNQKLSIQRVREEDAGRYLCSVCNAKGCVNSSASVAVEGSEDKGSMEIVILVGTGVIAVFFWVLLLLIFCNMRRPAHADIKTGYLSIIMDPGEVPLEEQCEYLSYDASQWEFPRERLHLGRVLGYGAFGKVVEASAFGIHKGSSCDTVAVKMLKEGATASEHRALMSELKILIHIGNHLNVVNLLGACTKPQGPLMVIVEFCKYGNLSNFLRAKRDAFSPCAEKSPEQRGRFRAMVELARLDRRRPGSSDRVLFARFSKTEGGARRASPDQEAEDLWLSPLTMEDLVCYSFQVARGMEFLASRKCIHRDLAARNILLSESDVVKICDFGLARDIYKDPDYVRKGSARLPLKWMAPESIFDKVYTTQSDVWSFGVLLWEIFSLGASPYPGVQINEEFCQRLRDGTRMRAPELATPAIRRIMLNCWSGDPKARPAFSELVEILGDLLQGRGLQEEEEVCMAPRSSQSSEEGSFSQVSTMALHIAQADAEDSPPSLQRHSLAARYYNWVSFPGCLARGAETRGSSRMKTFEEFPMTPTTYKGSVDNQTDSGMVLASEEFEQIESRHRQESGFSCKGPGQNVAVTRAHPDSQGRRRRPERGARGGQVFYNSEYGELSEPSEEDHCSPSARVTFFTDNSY
Sequence of PIM1 (human) (P11309 whole entry, looked up): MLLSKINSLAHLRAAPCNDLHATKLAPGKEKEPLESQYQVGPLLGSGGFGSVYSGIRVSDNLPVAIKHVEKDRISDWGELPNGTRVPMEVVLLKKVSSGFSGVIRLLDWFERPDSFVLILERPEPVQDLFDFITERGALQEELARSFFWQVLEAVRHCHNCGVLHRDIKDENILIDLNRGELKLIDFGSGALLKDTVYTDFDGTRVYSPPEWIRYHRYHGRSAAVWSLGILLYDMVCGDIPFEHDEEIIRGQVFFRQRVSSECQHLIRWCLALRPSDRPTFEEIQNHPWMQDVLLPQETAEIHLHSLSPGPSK
Sequence of GAK (human) (O14976 whole entry, looked up): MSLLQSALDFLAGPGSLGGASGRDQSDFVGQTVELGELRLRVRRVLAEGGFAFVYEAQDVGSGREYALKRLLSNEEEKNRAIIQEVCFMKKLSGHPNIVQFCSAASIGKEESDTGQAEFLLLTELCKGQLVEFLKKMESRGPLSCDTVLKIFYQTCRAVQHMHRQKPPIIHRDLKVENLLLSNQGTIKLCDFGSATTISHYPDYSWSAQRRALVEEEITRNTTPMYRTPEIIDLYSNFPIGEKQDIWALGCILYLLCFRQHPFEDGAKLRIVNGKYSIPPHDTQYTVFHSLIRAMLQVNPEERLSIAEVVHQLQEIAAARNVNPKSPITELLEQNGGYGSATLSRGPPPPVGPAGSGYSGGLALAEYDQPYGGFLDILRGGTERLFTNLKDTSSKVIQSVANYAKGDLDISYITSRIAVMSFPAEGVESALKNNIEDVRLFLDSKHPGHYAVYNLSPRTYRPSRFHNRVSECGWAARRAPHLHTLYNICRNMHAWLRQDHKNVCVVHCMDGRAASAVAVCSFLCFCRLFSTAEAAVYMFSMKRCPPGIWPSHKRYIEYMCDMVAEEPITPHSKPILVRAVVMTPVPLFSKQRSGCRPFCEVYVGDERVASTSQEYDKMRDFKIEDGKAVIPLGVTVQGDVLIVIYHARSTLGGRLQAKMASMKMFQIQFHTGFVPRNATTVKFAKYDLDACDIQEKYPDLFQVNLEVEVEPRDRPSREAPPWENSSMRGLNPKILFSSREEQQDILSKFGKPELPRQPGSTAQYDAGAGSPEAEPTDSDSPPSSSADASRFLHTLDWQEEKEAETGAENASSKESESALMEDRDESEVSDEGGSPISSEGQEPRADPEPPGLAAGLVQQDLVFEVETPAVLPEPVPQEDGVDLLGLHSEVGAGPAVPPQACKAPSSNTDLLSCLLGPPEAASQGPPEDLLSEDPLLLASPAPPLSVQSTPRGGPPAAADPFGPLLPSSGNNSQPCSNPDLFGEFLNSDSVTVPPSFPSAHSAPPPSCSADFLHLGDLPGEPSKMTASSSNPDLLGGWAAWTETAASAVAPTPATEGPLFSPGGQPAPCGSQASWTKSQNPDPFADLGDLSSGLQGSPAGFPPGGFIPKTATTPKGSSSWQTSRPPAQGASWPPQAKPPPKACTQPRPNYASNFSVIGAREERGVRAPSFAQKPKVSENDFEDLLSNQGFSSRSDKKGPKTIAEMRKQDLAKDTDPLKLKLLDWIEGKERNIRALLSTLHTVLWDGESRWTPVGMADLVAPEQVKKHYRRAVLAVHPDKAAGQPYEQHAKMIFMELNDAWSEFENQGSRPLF
Sequence of RIOK3 (human) (O14730 whole entry, looked up): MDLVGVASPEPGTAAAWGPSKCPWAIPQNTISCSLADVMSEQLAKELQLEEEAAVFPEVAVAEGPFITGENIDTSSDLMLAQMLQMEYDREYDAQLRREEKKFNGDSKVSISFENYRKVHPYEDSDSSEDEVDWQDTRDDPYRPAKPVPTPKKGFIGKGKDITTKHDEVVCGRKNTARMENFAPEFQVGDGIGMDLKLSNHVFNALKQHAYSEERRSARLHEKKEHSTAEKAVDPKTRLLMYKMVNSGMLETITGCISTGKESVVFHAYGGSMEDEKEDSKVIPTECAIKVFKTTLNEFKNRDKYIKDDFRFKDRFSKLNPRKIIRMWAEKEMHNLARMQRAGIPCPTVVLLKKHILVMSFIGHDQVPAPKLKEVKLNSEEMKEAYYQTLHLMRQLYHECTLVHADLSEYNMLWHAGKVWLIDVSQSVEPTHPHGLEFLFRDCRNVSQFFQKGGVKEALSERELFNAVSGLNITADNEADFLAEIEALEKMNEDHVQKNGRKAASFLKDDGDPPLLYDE
Sequence of PIM2 (human) (Q9P1W9 whole entry, looked up): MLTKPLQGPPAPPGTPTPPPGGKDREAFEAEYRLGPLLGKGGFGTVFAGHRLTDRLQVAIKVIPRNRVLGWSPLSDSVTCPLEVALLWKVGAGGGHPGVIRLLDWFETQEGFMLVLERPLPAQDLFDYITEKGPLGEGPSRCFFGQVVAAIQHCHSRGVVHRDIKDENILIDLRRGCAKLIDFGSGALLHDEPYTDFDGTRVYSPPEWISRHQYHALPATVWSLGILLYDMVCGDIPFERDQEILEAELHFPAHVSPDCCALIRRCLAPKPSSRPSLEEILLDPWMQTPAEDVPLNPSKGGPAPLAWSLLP
Sequence of TYK2 JH2 pseudokinase (human) (P29597 whole entry, looked up): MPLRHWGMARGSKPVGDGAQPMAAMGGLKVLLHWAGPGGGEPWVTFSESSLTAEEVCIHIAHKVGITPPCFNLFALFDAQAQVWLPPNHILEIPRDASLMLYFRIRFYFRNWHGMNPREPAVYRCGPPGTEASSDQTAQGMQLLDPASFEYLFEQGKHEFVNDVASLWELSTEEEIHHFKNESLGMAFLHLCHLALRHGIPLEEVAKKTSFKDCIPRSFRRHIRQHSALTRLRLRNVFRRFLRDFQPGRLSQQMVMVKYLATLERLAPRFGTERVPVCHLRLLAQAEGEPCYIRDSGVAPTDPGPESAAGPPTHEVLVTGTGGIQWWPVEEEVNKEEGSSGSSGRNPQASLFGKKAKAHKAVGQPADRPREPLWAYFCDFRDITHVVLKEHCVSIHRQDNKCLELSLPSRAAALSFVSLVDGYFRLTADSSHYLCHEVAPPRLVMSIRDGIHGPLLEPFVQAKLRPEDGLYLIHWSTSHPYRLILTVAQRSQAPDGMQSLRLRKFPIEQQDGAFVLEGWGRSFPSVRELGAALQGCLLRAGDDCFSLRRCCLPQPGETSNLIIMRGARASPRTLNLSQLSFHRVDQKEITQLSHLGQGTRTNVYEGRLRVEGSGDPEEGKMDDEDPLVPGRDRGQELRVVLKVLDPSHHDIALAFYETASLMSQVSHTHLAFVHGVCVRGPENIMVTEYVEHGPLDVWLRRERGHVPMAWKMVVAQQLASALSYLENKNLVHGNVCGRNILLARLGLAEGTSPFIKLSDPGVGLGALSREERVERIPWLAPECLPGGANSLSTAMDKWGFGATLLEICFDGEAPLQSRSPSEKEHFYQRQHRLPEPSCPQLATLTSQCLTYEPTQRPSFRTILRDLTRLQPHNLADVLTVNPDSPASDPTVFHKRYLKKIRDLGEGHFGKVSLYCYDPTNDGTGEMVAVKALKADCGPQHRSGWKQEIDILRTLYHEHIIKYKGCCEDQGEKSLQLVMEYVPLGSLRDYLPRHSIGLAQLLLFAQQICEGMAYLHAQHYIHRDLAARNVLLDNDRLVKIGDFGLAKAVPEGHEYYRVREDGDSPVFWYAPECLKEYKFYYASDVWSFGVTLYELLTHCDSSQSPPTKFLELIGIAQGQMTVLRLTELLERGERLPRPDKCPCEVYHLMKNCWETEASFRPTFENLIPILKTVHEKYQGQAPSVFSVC

Q: Which results are given for `COc1cc(N2CCN(C)CC2)ccc1Nc1ncc2c(n1)N1CCC[C@H]1CC(=O)N2`?
A: kinase still bound, per cent of control (FLT4 (human)): 33%; kinase still bound, per cent of control [1]: 19%; kinase still bound, per cent of control (CHEK1 (human)): 6%; kinase still bound, per cent of control (PDGFRB (human)): 0.05%; kinase still bound, per cent of control (MYLK4 (human)): 7.8%; kinase still bound, per cent of control (FRK (human)): 8.2%; kinase still bound, per cent of control (BLK (human)): 23%; kinase still bound, per cent of control (SLK (human)): 31%; kinase still bound, per cent of control [2]: 33%; kinase still bound, per cent of control (SIK2 (human)): 18%; kinase still bound, per cent of control (KIT (human)): 0%; kinase still bound, per cent of control (FGFR4 (human)): 17%; kinase still bound, per cent of control (STK33 (human)): 12%; kinase still bound, per cent of control [3]: 8.4%; kinase still bound, per cent of control (BMP2K (human)): 29%; kinase still bound, per cent of control (PLK3 (human)): 9.5%; kinase still bound, per cent of control (RPS6KA6 KD2 (human)): 2%; kinase still bound, per cent of control (PIP5K1A (human)): 11%; kinase still bound, per cent of control (PRKD1 (human)): 29%; kinase still bound, per cent of control (NEK2 (human)): 24%; kinase still bound, per cent of control [4]: 27%; kinase still bound, per cent of control (GAK (human)): 0.85%; kinase still bound, per cent of control [5]: 0%; kinase still bound, per cent of control (TNK2 (human)): 8.6%; kinase still bound, per cent of control [6]: 13%; kinase still bound, per cent of control [7]: 12%; kinase still bound, per cent of control (PDGFRA (human)): 1.8%; kinase still bound, per cent of control (RIOK1 (human)): 21%; kinase still bound, per cent of control (RPS6KA1 KD2 (human)): 14%; kinase still bound, per cent of control [8]: 27%; kinase still bound, per cent of control (PRKD3 (human)): 30%; kinase still bound, per cent of control (RIOK3 (human)): 31%; kinase still bound, per cent of control [9]: 21%; kinase still bound, per cent of control (CSF1R (human)): 0.8%; kinase still bound, per cent of control (FLT3 (human)): 11%; kinase still bound, per cent of control (TNK1 (human)): 25%; kinase still bound, per cent of control [10]: 19%

Q: Which results are given for `O=C1NC(=S)S/C1=C\c1ccc(-c2cccc3ccccc23)o1`?
A: IC50 (PIM1 (human) [11]): 1.62 µM; IC50 (PIM2 (human) [12]): 1.1 µM; kinase still bound, per cent of control (FLT4 (human)): 25%; kinase still bound, per cent of control (AXL (human)): 29%; kinase still bound, per cent of control (MAPK10 (human)): 30%; kinase still bound, per cent of control (PIM3 (human)): 2.6%; kinase still bound, per cent of control (MAPK9 (human)): 9.8%; kinase still bound, per cent of control (PLK4 (human)): 1.6%; kinase still bound, per cent of control (STK3 (human)): 34%; kinase still bound, per cent of control (STK17B (human)): 3.6%; kinase still bound, per cent of control (SRPK3 (human)): 33%; kinase still bound, per cent of control (PIM1 (human) [13]): 3%; kinase still bound, per cent of control (ALK (human)): 19%; kinase still bound, per cent of control (AURKC (human)): 27%; kinase still bound, per cent of control (TGFBR2 (human)): 14%; kinase still bound, per cent of control (SRPK1 (human)): 32%; kinase still bound, per cent of control (STK17A (human)): 1.8%; kinase still bound, per cent of control (DAPK3 (human)): 22%; kinase still bound, per cent of control [4]: 17%; kinase still bound, per cent of control (NEK6 (human)): 26%; kinase still bound, per cent of control (CSNK2A1 (human)): 8%; kinase still bound, per cent of control (GAK (human)): 28%; kinase still bound, per cent of control (MAPK14 (human)): 33%; kinase still bound, per cent of control (MERTK (human)): 20%; kinase still bound, per cent of control (PIM2 (human) [14]): 0.8%; kinase still bound, per cent of control (DAPK2 (human)): 17%; kinase still bound, per cent of control (CDK16 (human)): 1.4%; kinase still bound, per cent of control [8]: 34%; kinase still bound, per cent of control (RIOK3 (human)): 30%; kinase still bound, per cent of control (CSNK2A2 (human)): 12%; kinase still bound, per cent of control (HIPK1 (human)): 3.7%; kinase still bound, per cent of control (NEK7 (human)): 27%; kinase still bound, per cent of control (MAPK8 (human)): 30%
